We go through one compound from patent US20140147856A1, “Intestinal Permeability Assay for Neurodegenerative Diseases” (Rush University Medical Center, priority 2012, published 2014).

The data set is described as follows: Oral sugar intestinal permeability assay (urinary sugar excretion by gas chromatography). Format: in vivo, human. The conditions noted are these: oral sugar mixture with 1 gram sucralose after overnight fast, 24 h urine. The text has this:
In an example of a protocol used to validate the instant invention, patients with clinically diagnosed PD not yet requiring dopaminergic therapy were recruited under a clinical protocol (FIG. 1 and Table 1). […] Constipation was defined as fewer than 3 bowel movements per week or if the subject complained of constipation. Men and women who met United Kingdom Parkinson Disease Research Society brain bank criteria for PD, Hoehn & Yahr stage 1-2.5 were included. Subjects were excluded based on the following: atypical or secondary Parkinsonism, any known organic gastrointestinal disease, use of drugs affecting gastrointestinal motility, anti-inflammatory agents, and chronic diuretic use. Control subjects were of similar age and gender that had no GI or neurological symptoms or signs (determined by examination by a board certified neurologist with expertise in movement disorders) and were not taking regular medication or anti-inflammatory agents.
Subjects fasted overnight and subsequently ingested a sugar mixture containing 2 grams mannitol, 7.5 grams lactulose, 40 grams sucrose, and 1 gram sucralose at 6 AM, then collected 2 sequential 12-hour urine samples. Urine was analyzed for sugar content using gas chromatography (GC) techniques as described herein. […] The final residue is dissolved in 0.5 ml acetone and the sample is ready for analysis. […]

Consider `OC[C@H]1O[C@H](O[C@]2(CCl)O[C@H](CCl)[C@@H](O)[C@@H]2O)[C@H](O)[C@@H](O)[C@H]1Cl` [sucralose], for which the “mean 24 h urinary sucralose (marker of total intestinal permeability)” value reads like this: (PD subjects) 1.12±0.1% of oral dose; (age matched controls) 0.58±0.1% of oral dose.
